Data published in ChEMBL document CHEMBL1201862, “PubChem BioAssay data set” (2004).
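A five-concentration, 48-hour dose response in 96-well plates underlies each endpoint, interpolated linearly between surrounding concentrations. GI50: concentration for 50% inhibition of growth.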 Activity calls are given as the source filed them. No stated cut-off is given here; in the data, active = GI50 up to about 1.1 µM and inactive = higher.

What was measured:
Assay in all cases: growth of human tumour cells (NCI), 48 h
786-0 = test system: 786-0
A498 = test system: A498
A549 = test system: A549
ACHN = test system: ACHN
BT-549 = test system: BT-549
CAKI-1 = test system: CAKI-1
CCRF-CEM = test system: CCRF-CEM
COLO 205 = test system: COLO 205
DU-145 = test system: DU-145
EKVX = test system: EKVX
HCC 2998 = test system: HCC 2998
HCT-116 = test system: HCT-116
HCT-15 = test system: HCT-15
HL-60 = test system: HL-60
HOP-62 = test system: HOP-62
HOP-92 = test system: HOP-92
HT-29 = test system: HT-29
Hs-578T = test system: Hs-578T
IGROV-1 = test system: IGROV-1
KM12 = test system: KM12
LOX IMVI = test system: LOX IMVI
M14 = test system: M14
MCF7 = test system: MCF7
MDA-MB-231 = test system: MDA-MB-231
MDA-MB-435 = test system: MDA-MB-435
MDA-N = test system: MDA-N
Malme-3M = test system: Malme-3M
NCI-H226 = test system: NCI-H226
NCI-H23 = test system: NCI-H23
NCI-H460 = test system: NCI-H460
NCI-H522 = test system: NCI-H522
NCI/ADR-RES = test system: NCI/ADR-RES
OVCAR-3 = test system: OVCAR-3
OVCAR-4 = test system: OVCAR-4
OVCAR-5 = test system: OVCAR-5
OVCAR-8 = test system: OVCAR-8
PC-3 = test system: PC-3
RPMI-8226 = test system: RPMI-8226
RXF 393 = test system: RXF 393
SF-268 = test system: SF-268
SF-295 = test system: SF-295
SF-539 = test system: SF-539
SK-MEL-28 = test system: SK-MEL-28
SK-MEL-2 = test system: SK-MEL-2
SK-MEL-5 = test system: SK-MEL-5
SK-OV-3 = test system: SK-OV-3
SN12C = test system: SN12C
SNB-19 = test system: SNB-19
SNB-75 = test system: SNB-75
SR = test system: SR
SW-620 = test system: SW-620
T47D = test system: T47D
TK-10 = test system: TK-10
U-251 = test system: U-251
UACC-257 = test system: UACC-257
UACC-62 = test system: UACC-62
UO-31 = test system: UO-31
DLD-1 = test system: DLD-1
DMS-114 = test system: DMS-114
DMS-273 = test system: DMS-273
K562 = test system: K562
M19-MEL = test system: M19-MEL
MOLT-4 = test system: MOLT-4
KM-20L2 = test system: KM-20L2
LXFL 529 = test system: LXFL 529

## COC(=O)C1(CCC(=O)N(C)c2ccccc2)NNC2C(=O)N(c3ccccc3)C(=O)C21 (stereo not drawn)
786-0
  GI50: > 10 µM (inactive)
A498
  GI50: > 10 µM (inactive)
A549
  GI50: > 10 µM (inactive)
ACHN
  GI50: > 10 µM (inactive)
BT-549
  GI50: > 10 µM (inactive)
CAKI-1
  GI50: > 10 µM (inactive)
CCRF-CEM
  GI50: > 10 µM (inactive)
COLO 205
  GI50: > 10 µM (inactive)
DU-145
  GI50: > 10 µM (inactive)
EKVX
  GI50: > 10 µM (inactive)
HCC 2998
  GI50: > 10 µM (inactive)
HCT-116
  GI50: > 10 µM (inactive)
HCT-15
  GI50: > 10 µM
HL-60
  GI50: > 10 µM (inactive)
HOP-62
  GI50: > 10 µM (inactive)
HOP-92
  GI50: > 10 µM (inactive)
HT-29
  GI50: > 10 µM (inactive)
Hs-578T
  GI50: > 10 µM (inactive)
IGROV-1
  GI50: > 10 µM (inactive)
KM12
  GI50: > 10 µM (inactive)
LOX IMVI
  GI50: > 10 µM (inactive)
M14
  GI50: > 10 µM (inactive)
MCF7
  GI50: > 10 µM (inactive)
MDA-MB-231
  GI50: > 10 µM (inactive)
MDA-MB-435
  GI50: > 10 µM (inactive)
MDA-N
  GI50: > 10 µM (inactive)
Malme-3M
  GI50: > 10 µM (inactive)
NCI-H226
  GI50: > 10 µM (inactive)
NCI-H23
  GI50: > 10 µM (inactive)
NCI-H460
  GI50: > 10 µM (inactive)
NCI-H522
  GI50: > 10 µM (inactive)
NCI/ADR-RES
  GI50: > 10 µM (inactive)
OVCAR-3
  GI50: > 10 µM (inactive)
OVCAR-4
  GI50: > 10 µM (inactive)
OVCAR-5
  GI50: > 10 µM (inactive)
OVCAR-8
  GI50: > 10 µM (inactive)
PC-3
  GI50: > 10 µM (inactive)
RPMI-8226
  GI50: > 10 µM (inactive)
RXF 393
  GI50: > 10 µM (inactive)
SF-268
  GI50: > 10 µM (inactive)
SF-295
  GI50: > 10 µM (inactive)
SF-539
  GI50: > 10 µM (inactive)
SK-MEL-28
  GI50: > 10 µM (inactive)
SK-MEL-2
  GI50: > 10 µM (inactive)
SK-MEL-5
  GI50: > 10 µM (inactive)
SK-OV-3
  GI50: > 10 µM (inactive)
SN12C
  GI50: > 10 µM (inactive)
SNB-19
  GI50: > 10 µM (inactive)
SNB-75
  GI50: > 10 µM (inactive)
SR
  GI50: > 10 µM (inactive)
SW-620
  GI50: > 10 µM (inactive)
T47D
  GI50: > 10 µM (inactive)
TK-10
  GI50: > 10 µM (inactive)
U-251
  GI50: > 10 µM (inactive)
UACC-257
  GI50: > 10 µM (inactive)
UACC-62
  GI50: > 10 µM (inactive)
UO-31
  GI50: > 10 µM (inactive)

## COc1ccc(CNc2cnc3cc(N)ccc3n2)cc1OC
786-0
  GI50: > 100 µM (inactive)
A549
  GI50: > 100 µM (inactive)
ACHN
  GI50: > 100 µM (inactive)
CAKI-1
  GI50: > 100 µM (inactive)
CCRF-CEM
  GI50: > 100 µM (inactive)
COLO 205
  GI50: > 100 µM (inactive)
DLD-1
  GI50: > 100 µM (inactive)
DMS-114
  GI50: > 100 µM (inactive)
DMS-273
  GI50: > 100 µM (inactive)
EKVX
  GI50: > 100 µM (inactive)
HCC 2998
  GI50: > 100 µM (inactive)
HCT-116
  GI50: > 100 µM (inactive)
HCT-15
  GI50: > 100 µM
HL-60
  GI50: > 100 µM (inactive)
HOP-62
  GI50: > 100 µM (inactive)
HT-29
  GI50: > 100 µM (inactive)
K562
  GI50: > 100 µM (inactive)
KM12
  GI50: > 100 µM (inactive)
LOX IMVI
  GI50: > 100 µM (inactive)
M14
  GI50: > 100 µM (inactive)
M19-MEL
  GI50: > 100 µM (inactive)
MOLT-4
  GI50: > 100 µM (inactive)
Malme-3M
  GI50: > 100 µM (inactive)
NCI-H226
  GI50: > 100 µM (inactive)
NCI-H460
  GI50: > 100 µM (inactive)
NCI-H522
  GI50: > 100 µM (inactive)
OVCAR-3
  GI50: > 100 µM (inactive)
OVCAR-4
  GI50: > 100 µM (inactive)
OVCAR-5
  GI50: > 10 µM (inactive)
OVCAR-8
  GI50: > 100 µM (inactive)
RPMI-8226
  GI50: > 100 µM (inactive)
SF-268
  GI50: > 100 µM (inactive)
SF-295
  GI50: > 100 µM (inactive)
SF-539
  GI50: > 100 µM (inactive)
SK-MEL-28
  GI50: > 100 µM (inactive)
SK-MEL-2
  GI50: > 100 µM (inactive)
SK-MEL-5
  GI50: > 100 µM (inactive)
SN12C
  GI50: > 100 µM (inactive)
SNB-19
  GI50: > 100 µM (inactive)
SNB-75
  GI50: > 100 µM (inactive)
SR
  GI50: > 100 µM (inactive)
SW-620
  GI50: > 100 µM (inactive)
TK-10
  GI50: > 100 µM (inactive)
UACC-257
  GI50: > 100 µM (inactive)
UO-31
  GI50: > 100 µM (inactive)

## Cc1c2cc[n+](C)cc2c(C)c2c1[nH]c1ccc(Oc3ccccc3)cc12
786-0
  GI50: 0.504 µM (active)
A549
  GI50: 0.324 µM (active)
ACHN
  GI50: 2.05 µM (inactive)
CAKI-1
  GI50: 1.89 µM (inactive)
CCRF-CEM
  GI50: 1.19 µM (inactive)
COLO 205
  GI50: 1.1 µM (active)
DLD-1
  GI50: 0.906 µM (active)
DMS-273
  GI50: 0.596 µM (active)
EKVX
  GI50: 3.61 µM (inactive)
HCC 2998
  GI50: 2.61 µM (inactive)
HCT-116
  GI50: 1.54 µM (inactive)
HCT-15
  GI50: 3.05 µM
HOP-62
  GI50: 0.578 µM (active)
HOP-92
  GI50: 1.28 µM (inactive)
HT-29
  GI50: 0.764 µM (active)
IGROV-1
  GI50: 2.23 µM (inactive)
K562
  GI50: 0.383 µM (active)
KM-20L2
  GI50: 1.14 µM (inactive)
KM12
  GI50: 0.59 µM (active)
LOX IMVI
  GI50: 2.09 µM (inactive)
LXFL 529
  GI50: 0.282 µM (active)
M14
  GI50: 4.48 µM (inactive)
MOLT-4
  GI50: 2.21 µM (inactive)
Malme-3M
  GI50: 1.76 µM (inactive)
NCI-H226
  GI50: 0.492 µM (active)
NCI-H23
  GI50: 0.515 µM (active)
OVCAR-3
  GI50: 1.6 µM (inactive)
OVCAR-4
  GI50: 1.4 µM (inactive)
OVCAR-5
  GI50: 3.31 µM (inactive)
OVCAR-8
  GI50: 0.553 µM (active)
RPMI-8226
  GI50: 1.62 µM (inactive)
SF-268
  GI50: 0.738 µM (active)
SF-295
  GI50: 0.311 µM (active)
SF-539
  GI50: 1.88 µM (inactive)
SK-MEL-28
  GI50: 3.28 µM (inactive)
SK-MEL-2
  GI50: 1.1 µM (active)
SK-MEL-5
  GI50: 0.794 µM (active)
SK-OV-3
  GI50: 1.39 µM (inactive)
SN12C
  GI50: 0.381 µM (active)
SNB-19
  GI50: 0.67 µM (active)
SNB-75
  GI50: 0.44 µM (active)
SW-620
  GI50: 0.843 µM (active)
U-251
  GI50: 0.308 µM (active)
UACC-257
  GI50: 1.18 µM (inactive)
UACC-62
  GI50: 1.51 µM (inactive)
UO-31
  GI50: 7.29 µM (inactive)
